From patent EP0808172B1, “COMBINATION OF ANGIOTENSIN CONVERTING ENZYME INHIBITOR AND ALDOSTERONE ANTAGONIST FOR THE TREATMENT OF VENTRICULAR HYPERTROPHY” (priority 1995, dated 1996)

Experiments:
[1] = test system: patients with symptomatic heart failure; experiment: Human clinical trial: hospitalizations and deaths
[2] = test system: patients with symptomatic heart failure; experiment: Human clinical trial: weight and vital signs; type: in vivo, humans; conditions: 75 mg dose group, Day 9 and Week 4 visits
Description: (§1) Concurrent medication within the past 30 days. • 2. 12-lead ECG • 3. […] Signs and symptoms within the past 30 days.
Patients were evaluated 9 days after beginning study medication.
(§2) All statistical methods were two-sided.

[3] = test system: patients with symptomatic heart failure; experiment: Human clinical trial: neurohormones (urinary aldosterone, plasma renin activity, N-terminal ANF); conditions: 12 week visit, dose response (p = 0.002)
[4] = test system: patients with symptomatic heart failure; experiment: Human clinical trial: cardiac assessments (sodium retention score, NYHA class) and changes in patient therapy; type: in vivo, humans; conditions: spironolactone groups vs placebo; difference not statistically significant
From the text: as §1, §2

[5] = test system: patients afflicted with congestive heart failure; conditions: spironolactone 100 mg/day coadministered with an ACE inhibitor; van Vliet et al 1993; cited from earlier work

For `CC(=O)S[C@@H]1CC2=CC(=O)CC[C@]2(C)[C@H]2CC[C@@]3(C)[C@@H](CC[C@@]34CCC(=O)O4)[C@H]12` [Spironolactone, 17-hydroxy-7α-mercapto-3-oxo-17α-pregn-4-ene-21-carboxylic acid γ-lactone acetate], the “patients died within 30 days after the study was completed” value ([1]; previously at the 50 mg dose) was “Three”, the “Hospitalizations, percent of patients” value ([1]; spironolactone 12.5 mg) was 7.3% and the “Hospitalizations, percent of patients” value ([1]; spironolactone 25 mg) was 6.6%. For the same compound, the “Hospitalizations, percent of patients” value ([1]; spironolactone 50 mg) was 27.6%, the “Hospitalizations, percent of patients” value ([1]; spironolactone 75 mg) was 14.6% and the “changes from baseline in body weight” value [2] was “more weight loss than other patients”. The “Urinary aldosterone excretion, change from baseline” value [3] was “Greater increases were seen at higher doses of spironolactone”, the “NYHA Class” value [4] was “trend toward improvement” and the “patients in whom the treatment was highly effective” value [5] was 13 of 16.
